Here are results for 31 molecules from patent publication US11780839B2, “Compounds for treating Huntington's disease” (PTC THERAPEUTICS, INC., priority 2018, dated 2023).

As a reminder, the IC50 is the concentration needed to halve the response being measured. Low readings indicate greater potency in that assay, high ones weaker potency in that assay.

For the experiment, the system named is Endogenous Huntingtin Protein. Nature of the experiment: Endogenous Huntingtin Protein Assay (ELISA-based Meso Scale Discovery electrochemiluminescence). Format: cell-based. The settings on record: MSD electrochemiluminescence, Table 1. Here is the method: Compounds of Formula (I) or Formula (II) were tested using the Meso Scale Discovery (MSD) Assay provided in International Application No. PCT/US2016/066042, filed on Dec. 11, 2016 and claiming priority to U.S. Provisional Application 62/265,652 filed on Dec. 10, 2015, the entire contents of which are incorporated herein by reference.
The Endogenous Huntingtin Protein assay used in Example 1 was developed using the ELISA-based MSD electrochemiluminescence assay platform.
Endogenous Huntingtin Protein Assay
Meso Scale Discovery (MSD) 96-well or 384-well plates were coated overnight at 4° C. with MW1 (expanded polyglutamine) or MAB2166 monoclonal antibody (for capture) at a concentration of 1 μg/mL in PBS (30 μL per well). Plates were then washed three times with 300 μL wash buffer (0.05% Tween-20 in PBS) and blocked (100 μL blocking buffer; 5% BSA in PBS) for 4-5 hours at room temperature with rotational shaking and then washed three times with wash buffer.
Samples (25 μL) were transferred to the antibody-coated MSD plate and incubated overnight at 4° C. After removal of the lysates, the plate was washed three times with wash buffer, and 25 μL of #5656S (Cell signaling; rabbit monoclonal) secondary antibody (diluted to 0.25 μg/mL in 0.05% Tween-20 in blocking buffer) was added to each well and incubated with shaking for 1 Hour at room temperature. Following incubation with the secondary antibody, the wells were rinsed with wash buffer after which 25 μL of goat anti-rabbit SULFO TAG secondary detection antibody (required aspect of the MSD system) (diluted to 0.25 μg/mL in 0.05% Tween-20 in blocking buffer) was added to each well and incubated with shaking for 1 hour at room temperature. After rinsing three times with wash buffer, 150 μL of read buffer T with surfactant (MSD) were added to each empty well, and the plate was imaged on a SI 6000 imager (MSD) according to manufacturers' instructions provided for 96- or 384-well plates.
Background: An ELISA detects its analyte on a solid surface through an enzyme-linked reagent.
Turning to `CNCC1CCN(c2ncc(-c3ccc(-c4cn[nH]c4)cc3O)nn2)C1` (stereo not shown) [Cpd 413, 2-(3-{3-[(methylamino)methyl]pyrrolidin-1-yl}-1,2,4-triazin-6-yl)-5-(1H-pyrazol-4-yl)phenol], the IC50 was ≤ 100 nM.

`CC1(C)CC(Nc2ncc(-c3ccc(Nc4cccnc4)cc3O)nn2)CC(C)(C)N1` [Cpd 315, 5-[(pyridin-3-yl)amino]2-{3-[(2,2,6,6-tetramethylpiperidin-4-yl)amino]-1,2,4-triazin-6-yl}phenol]: the IC50 is ≤ 100 nM.

Turning to `CN(c1ncc(-c2ccc(-c3ccc4nccn4n3)cc2O)nn1)C1CC(C)(C)NC(C)(C)C1` [Cpd 92, 5-(imidazo[1,2-b]pyridazin-6-yl)-2-{3-[methyl(2,2,6,6-tetramethylpiperidin-4-yl)amino]-1,2,4-triazin-6-yl}phenol], the IC50 was ≤ 100 nM. `CC1(C)CC(Nc2cnc(-c3ccc(-c4cn[nH]c4)cc3O)nn2)C(F)C(C)(C)N1` (stereo not shown) [Cpd 423, 2-{6-[(3-fluoro-2,2,6,6-tetramethylpiperidin-4-yl)amino]-1,2,4-triazin-3-yl}-5-(1H-pyrazol-4-yl)phenol]: the IC50 is ≤ 100 nM. For the molecule `Oc1cc(-c2cn[nH]c2)ccc1-c1cnc(N2CC3CNCC3C2)nn1` (stereo not shown) [Cpd 337, 2-[3-(hexahydropyrrolo[3,4-c]pyrrol-2(1H)-yl)-1,2,4-triazin-6-yl]-5-(1H-pyrazol-4-yl)phenol], the IC50 is ≤ 100 nM. Turning to `Oc1cc(-c2cn[nH]c2)ccc1-c1cnc(N2CCC3(CC2)CNC3)nn1` [Cpd 95, 2-[3-(2,7-diazaspiro[3.5]nonan-7-yl)-1,2,4-triazin-6-yl]-5-(1H-pyrazol-4-yl)phenol], the IC50 lay in the range of 100 to 500 nM. With `CNC1CCN(c2ncc(-c3ccc(-c4ncccn4)cc3O)nn2)C1` (stereo not shown) [Cpd 270, 2-{3-[3-(methylamino)pyrrolidin-1-yl]-1,2,4-triazin-6-yl}-5-(pyrimidin-2-yl)phenol], the IC50 lay in the range of 1000 to 3000 nM. Consider `CN1CCC2(CC1)CN(c1ncc(-c3ccc(-c4cnn(C)c4)cc3O)nn1)C2` [Cpd 226, 2-[3-(7-methyl-2,7-diazaspiro[3.5]nonan-2-yl)-1,2,4-triazin-6-yl]-5-(1-methyl-1H-pyrazol-4-yl)phenol], for which the IC50 is ≤ 100 nM.

For the molecule `CN(c1ncc(-c2ccc(-c3ccncn3)cc2O)nn1)C1CC(C)(C)NC(C)(C)C1` [Cpd 102, 2-{3-[methyl(2,2,6,6-tetramethylpiperidin-4-yl)amino]-1,2,4-triazin-6-yl}-5-(pyrimidin-4-yl)phenol], the IC50 is ≤ 100 nM. With `COc1cc(-c2ccc(-c3cnc(N(C)C4CC(C)(C)NC(C)(C)C4)nn3)c(O)c2)ncn1` [Cpd 2, 5-(6-methoxypyrimidin-4-yl)-2-{3-[methyl(2,2,6,6-tetramethylpiperidin-4-yl)amino]-1,2,4-triazin-6-yl}phenol], the IC50 was ≤ 100 nM. With `CN(C)C1CCN(c2ncc(-c3ccc(-c4cn[nH]c4)cc3O)nn2)C1` (stereo not shown) [Cpd 318, 2-{3-[3-(dimethylamino)pyrrolidin-1-yl]-1,2,4-triazin-6-yl}-5-(1H-pyrazol-4-yl)phenol], the IC50 lay within 100 to 500 nM.

In turn, `CNC1CCN(c2ncc(-c3ccc(-c4cc(SC)ncn4)cc3O)nn2)C1` (stereo not drawn) [Cpd 364, 2-{3-[3-(methylamino)pyrrolidin-l-yl]-1,2,4-triazin-6-yl}-5-[6-(methylsulfanyl)pyrimidin-4-yl]phenol] showed an IC50 of 100 to 500 nM. As for `CN(c1ncc(-c2ccc(-c3cnc4c(cnn4C)c3)cc2O)nn1)C1CC(C)(C)NC(C)(C)C1` [Cpd 176, 5-(1-methyl-1H-pyrazolo[3,4-b]pyridin-5-yl)-2-{3-[methyl(2,2,6,6-tetramethylpiperidin-4-yl)amino]-1,2,4-triazin-6-yl}phenol], the IC50 is ≤ 100 nM.

As to `CNC1CCN(c2ncc(-c3ccc(-n4cc(F)cn4)cc3O)nn2)C1` (stereo not shown) [Cpd 219, 5-(4-fluoro-1H-pyrazol-1-yl)-2-{3-[3-(methylamino)pyrrolidin-1-yl]-1,2,4-triazin-6-yl}phenol], the IC50 lay in the range of 100 to 500 nM.

Consider `CN(c1ncc(-c2ccc(-c3ccn(C)n3)cc2O)nn1)C1CC(C)(C)NC(C)(C)C1` [Cpd 76, 5-(1-methyl-1H-pyrazol-3-yl)-2-{3-[methyl(2,2,6,6-tetramethylpiperidin-4-yl)amino]-1,2,4-triazin-6-yl}phenol], for which the IC50 was ≤ 100 nM.

Take `CN(c1ncc(-c2ccc(-n3ncc([N+](=O)[O-])n3)cc2O)nn1)C1CC(C)(C)NC(C)(C)C1` [Cpd 99, 2-{3-[methyl(2,2,6,6-tetramethylpiperidin-4-yl)amino]-1,2,4-triazin-6-yl}-5-(4-nitro-2H-1,2,3-triazol-2-yl)phenol]: the concentration for half-maximal inhibition (IC50) was ≤ 100 nM. With `CN(c1ncc(-c2ccc(-c3ccc4c(nnn4C)n3)cc2O)nn1)C1CC(C)(C)NC(C)(C)C1` [Cpd 186, 2-{3-[methyl(2,2,6,6-tetramethylpiperidin-4-yl)amino]-1,2,4-triazin-6-yl}-5-(1-methyl-1H-[1,2,3]triazolo[4,5-b]pyridin-5-yl)phenol], the IC50 is ≤ 100 nM. Consider `CC1(C)C[C@H](Nc2ncc(-c3ccc(-c4ncns4)cc3O)nn2)[C@H](F)C(C)(C)N1` [Cpd 292, 2-(3-{[(3S,4S)-3-fluoro-2,2,6,6-tetramethylpiperidin-4-yl]amino}-1,2,4-triazin-6-yl)-5-(1,2,4-thiadiazol-5-yl)phenol], for which the IC50 is ≤ 100 nM.

`CN(C)[C@@H]1CC[C@@H]2CN(c3ncc(-c4ccc(-c5cn[nH]c5)cc4O)nn3)C[C@@H]21` [Cpd 162, 2-{3-[(3aR,4R,6aS)-4-(dimethylamino)hexahydrocyclopenta[c]pyrrol-2(1H)-yl]-1,2,4-triazin-6-yl}-5-(1H-pyrazol-4-yl)phenol] returned an IC50 of 100 to 500 nM. To `CN(c1ncc(-c2ccc(-c3cccs3)cc2O)nn1)C1CC(C)(C)NC(C)(C)C1` [Cpd 53, 2-{3-[methyl(2,2,6,6-tetramethylpiperidin-4-yl)amino]-1,2,4-triazin-6-yl}-5-(thiophen-2-yl)phenol] belongs 100 to 500 nM.

For `CN(c1ncc(-c2ccc(-c3cn[nH]c3)cc2O)nn1)C1C[C@H]2CC[C@@H](C1)N2` (stereo partly drawn) [Cpd 21, 2-(3-{[(1R,3S,5S)-8-azabicyclo[3.2.1]octan-3-yl](methyl)amino}-1,2,4-triazin-6-yl)-5-(1H-pyrazol-4-yl)phenol], the IC50 was ≤ 100 nM. On to `CN1CCC2(CC1)CN(c1ncc(-c3ccc(-n4cc(F)cn4)cc3O)nn1)C2` [Cpd 229, 5-(4-fluoro-1H-pyrazol-1-yl)-2-[3-(7-methyl-2,7-diazaspiro[3.5]nonan-2-yl)-1,2,4-triazin-6-yl]phenol], for which the concentration for half-maximal inhibition (IC50) is > 500 nM. To “5-(5-fluoro-1H-pyrazol-4-yl)-2-{6-[methyl(2,2,6,6-tetramethylpiperidin-4-yl)amino]-1,2,4-triazin-3-yl}phenol [Cpd 191]” belongs ≤ 100 nM; to `CN(c1ncc(-c2ccc(-c3cnn(C4CC4)c3)cc2O)nn1)C1CC(C)(C)NC(C)(C)C1` [Cpd 101, 5-(1-cyclopropyl-1H-pyrazol-4-yl)-2-{3-[methyl(2,2,6,6-tetramethylpiperidin-4-yl)amino]-1,2,4-triazin-6-yl}phenol], 100 to 500 nM; to `Cn1cc(-c2ccc(-c3cnc(N4CCC(CNC5CCC5)C4)nn3)c(O)c2)cn1` (stereo not shown) [Cpd 416, 2-(3-{3-[(cyclobutylamino)methyl}pyrrolidin-1-yl}-1,2,4-triazin-6-yl)-5-(1-methyl-1H-pyrazol-4-yl)phenol], ≤ 100 nM. The molecule `Cc1cnn(-c2ccc(-c3cnc(N(C)C4CC(C)(C)NC(C)(C)C4)nn3)c(O)c2)c1` [Cpd 94, 5-(4-methyl-1H-pyrazol-1-yl)-2-{3-[methyl(2,2,6,6-tetramethylpiperidin-4-yl)amino]-1,2,4-triazin-6-yl}phenol] gave an IC50 of 100 to 500 nM. Molecule `CC(C)NC1CCN(c2ncc(-c3ccc(-n4nccn4)cc3O)nn2)C1` (stereo not shown) [Cpd 264] displayed an IC50 of 100 to 500 nM. Regarding `CC1(C)C[C@H](Nc2ncc(-c3ccc(-c4cn[nH]c4)cc3O)nn2)[C@H](F)C(C)(C)N1` [Cpd 322, 2-(3-{[(3S,4S)-3-fluoro-2,2,6,6-tetramethylpiperidin-4-yl]amino}-1,2,4-triazin-6-yl)-5-(1H-pyrazol-4-yl)phenol], the IC50 is ≤ 100 nM. To `CC(C)(C)NC1CCN(c2ncc(-c3ccc(-n4nccn4)cc3O)nn2)C1` (stereo not drawn) [Cpd 204, 2-{3-[3-(tert-butylamino)pyrrolidin-l-yl]-1,2,4-triazin-6-yl}-5-(2H-1,2,3-triazol-2-yl)phenol] belongs ≤ 100 nM; to `CN(c1ncc(-c2ccc(-c3cnccn3)cc2O)nn1)C1CC(C)(C)NC(C)(C)C1` [Cpd 83, 2-{3-[methyl(2,2,6,6-tetramethylpiperidin-4-yl)amino]-1,2,4-triazin-6-yl}-5-(pyrazin-2-yl)phenol], ≤ 100 nM. Regarding `CC1CN(c2ncc(-c3ccc(-c4cn[nH]c4)cc3O)nn2)CC(C)N1` (stereo not shown) [Cpd 262, 2-[3-(3,5-dimethylpiperazin-1-yl)-1,2,4-triazin-6-yl]-5-(1H-pyrazol-4-yl)phenol], the IC50 was ≤ 100 nM.
